These compounds were tested on leukemic Molt 4 Cell (assay: Biochemiluminescence by single photoncounter system after laser irradiation (destruction of cancer cells)). Conditions: Homo sapiens, 100 µg/2 ml, incubated 24 hours at 37°C, He-Ne laser 630 nm, 10 min, 20 mW, read-out: cancer cells destroyed.
Format: cell-based
Method: Sodium 9-desoxo-9-hydroxy pheophorbide dissolved in physiological saline of respective concentrations (25 µg/2 ml, 50 µg/2 ml, […]) was added to leukemic Molt 4 Cell ([…] Cells) and the resultant product was incubated for 24 hours at 37°C.
Each incubated cell thus obtained was irradiated with laser (He-Ne gas, 630 nm, 10 min, 20 mW) and trace biochemiluminescence was measured by single photoncounter system.
Intensity of biochemiluminescence substantially correponds to the degree of destructive effect on cancer cells and thus by studying the biochemiluminescence by single photoncounter system, it is possible to predict the destructive effect on cancer cells.
Leukemic Molt 4 cell ([…] cells) was added with physiological saline containing sodium 2- desethenyl-2-(1-hydroxyethyl) pheophorbide (sodium salt of (2)) in respective concentrations ([…], 100 µg/2 ml) and then incubated (37°C, 24 hours). Incubated cells each were irradiated with laser ([…], 630 nm, 10 min, 20 mW) to investigate generation of biochemiluminescence by single photoncounter system by measuring biochemiluminescence; The intensity of biochemiluminescence by single photoncounter system substantially corresponds to the degree of destruction of the cancer cells. […]
C=Cc1c(C)c2cc3nc(c4c5[nH]c(cc6nc(cc1[nH]2)C(C)=C6CC)c(C)c5C(O)C4C(=O)OC)C(CCC(=O)O)C3C (stereo not shown) [9-Desoxo-9-hydroxy-pheophorbate (11), 9-desoxo-9-hydroxy-pheophorbide] showed a cytotoxicity at 50 µg/mL of over 95%.
CCC1=C(C)c2cc3[nH]c(cc4nc(c5c6[nH]c(cc1n2)c(C)c6C(=O)C5C(=O)OC)C(CCC(=O)O)C4C)c(C)c3C(C)O (stereo not shown) [2-desethenyl-2-(1-hydroxyethyl)-pheophorbide] gave a cytotoxicity at 50 µg/mL of over 95%.

These compounds were tested on nitrosamine-induced cancer cells of the pancreas (assay: N2 pulsed laser spectro-fluorometry of removed organs after administration to tumour-bearing hamsters). Conditions: 24 hours after administration; 5 mg in 1 ml physiological saline.
Format: in vivo, golden hamsters
Method: Five mg of the test drug sodium 9-desoxo-9-hydroxy pheophorbide diluted in physiological saline (1 ml) was administered (1 ml) to golden hamsters (5 each for a group) 14-21 days after transplantation of nitrosamine-induced cancer cells of the pancreas, after which cancer cells and other organs were removed. N2-pulsed laser (N2 337 nm, 2 ns 400-1000 nm) was irradiated to each organ thus obtained to measure N2 pulsed laser spectro-fluorometry.
N2 pulsed laser spectro-fluorometry of each removed organ was measured 24 hours and 48 hours afterwards to investigate the wavelengths of 600 to 900 nm based on the peak wavelengths of NADH of 470 nm.
Golden hamsters (5 per one group) 14-21 days after transplantation of nitrosamine-induced cancer cells of the pancreas were administered 5 mg each of sodium 2-desethenyl-2-(1-hydroxyethyl) pheophorbide (sodium salt of (2)), sodium 2-desethynyl-2-(1-hydroxyethyl)-9-desoxo-9-hydroxy pheophorbide (sodium salt (3)), sodium 2-desethenyl-2-(1-acetyloxyethyl)-9-desoxo-9-acetyloxy pheophorbide (sodium salt of (4)), sodium ethylene glycol mono-10b-pheophorbate (sodium salt of (8)), disodium ethylene glycol di-10b-pheophorbate (sodium salt of (10)) and sodium N-phenylalanine 10b-methyl pheophorbid amide (sodium salt of (9)) respectively diluted with physiological saline (1 ml). Cancer cells and other organs were removed, irradiated with N2-pulsed laser (N2, 337 nm, 2 ns 400-1000 nm) to measure N2 pulsed laser spectro fluorometry. Using the. NADH peak wavelength of 470 nm as the reference, wavelengths in the range of from 600-900 nm were studied.
Various organs were removed 24 hours after administration and their N2 pulsed laser spectro-fluorometry was measured.
C=Cc1c(C)c2cc3nc(c4c5[nH]c(cc6nc(cc1[nH]2)C(C)=C6CC)c(C)c5C(O)C4C(=O)OC)C(CCC(=O)O)C3C (stereo not shown) [9-Desoxo-9-hydroxy-pheophorbate (11), 9-desoxo-9-hydroxy-pheophorbide] was tested, and the “accumulation in cancer cells and other organs (N2 pulsed laser spectro-fluorometry)” value was “generally found in organs”.

Same assay, conditions: 48 hours after administration; 5 mg in 1 ml physiological saline
In the case of C=Cc1c(C)c2cc3nc(c4c5[nH]c(cc6nc(cc1[nH]2)C(C)=C6CC)c(C)c5C(O)C4C(=O)OC)C(CCC(=O)O)C3C (stereo not shown) [9-Desoxo-9-hydroxy-pheophorbate (11), 9-desoxo-9-hydroxy-pheophorbide], the “accumulation in cancer cells and other organs (N2 pulsed laser spectro-fluorometry)” value is reported as “markedly accumulated in cancer cells alone but not in other cells”.

Same assay, conditions: sodium compounds; organs removed 24 hours after administration; N2 337 nm laser, 600-900 nm
In the case of C=Cc1c(C)c2cc3nc(c4c5[nH]c(cc6nc(cc1[nH]2)C(C)=C6CC)c(C)c5C(=O)C4C(=O)OCCOC(=O)C1C(=O)c2c(C)c4cc5nc(cc6[nH]c(cc7nc(c1c2[nH]4)C(CCC(=O)O)C7C)c(C)c6C=C)C(C)=C5CC)C(CCC(=O)O)C3C (stereo not shown) [Ethylene glycol di-10b-pheophorbate (10), ethylene glycol di-10b-pheophorbate], the “N2 pulsed laser spectro-fluorometry, wavelengths calculated using the NADH peak wavelength of 470 nm as the reference” value is reported as 2.78.
For C=Cc1c(C)c2cc3nc(c4c5[nH]c(cc6nc(cc1[nH]2)C(C)=C6CC)c(C)c5C(=O)C4C(=O)NC(Cc1ccccc1)C(=O)O)C(CCC(=O)OC)C3C (stereo not shown) [N-phenylalanine 10b-methylpheophorbidamide], the “N2 pulsed laser spectro-fluorometry, wavelengths calculated using the NADH peak wavelength of 470 nm as the reference” value was 0.75.
With C=Cc1c(C)c2cc3nc(c4c5[nH]c(cc6nc(cc1[nH]2)C(C)=C6CC)c(C)c5C(OC(C)=O)C4C(=O)OC)C(CCC(=O)O)C3C (stereo not shown) [9-Desoxo-9-acetyloxy-pheophorbide, 9-desoxo-9-acetyloxy-pheophorbide] the “N2 pulsed laser spectro-fluorometry, wavelengths calculated using the NADH peak wavelength of 470 nm as the reference” value was 0.89.
C=Cc1c(C)c2cc3nc(c4c5[nH]c(cc6nc(cc1[nH]2)C(C)=C6CC)c(C)c5C(O)C4C(=O)OC)C(CCC(=O)O)C3C (stereo not shown) [9-Desoxo-9-hydroxy-pheophorbate (11), 9-desoxo-9-hydroxy-pheophorbide] was tested, and the “N2 pulsed laser spectro-fluorometry, wavelengths calculated using the NADH peak wavelength of 470 nm as the reference” value was 0.93.
With C=Cc1c(C)c2cc3nc(c4c5[nH]c(cc6nc(cc1[nH]2)C(C)=C6CC)c(C)c5C(=O)C4C(=O)OCCO)C(CCC(=O)O)C3C (stereo not shown) [ethylene glycol mono-10b-pheophorbate] the “N2 pulsed laser spectro-fluorometry, wavelengths calculated using the NADH peak wavelength of 470 nm as the reference” value was 1.72.
With C=Cc1c(C)c2cc3nc(c4c5[nH]c(cc6nc(cc1[nH]2)C(C)=C6CC)c(C)c5C(O)C4C(=O)OCCOC(=O)C1c2c4nc(cc5[nH]c(cc6nc(cc7[nH]c2c(c7C)C1O)C(CC)=C6C)c(C=C)c5C)C(C)C4CCC(=O)O)C(CCC(=O)O)C3C (stereo not shown) [Ethylene glycol di-10b-9-desoxo-9-hydroxypheophorbate] the “N2 pulsed laser spectro-fluorometry, wavelengths calculated using the NADH peak wavelength of 470 nm as the reference” value was 2.50.
With C=Cc1c(C)c2cc3nc(c4c5[nH]c(cc6nc(cc1[nH]2)C(C)=C6CC)c(C)c5C(O)C4C(=O)OCCO)C(CCC(=O)O)C3C (stereo not shown) [Ethylene glycol mono-10b-9-desoxo-9-hydroxy-pheophorbate] the “N2 pulsed laser spectro-fluorometry, wavelengths calculated using the NADH peak wavelength of 470 nm as the reference” value was 2.10.
C=Cc1c(C)c2cc3nc(c4c5[nH]c(cc6nc(cc1[nH]2)C(C)=C6CC)c(C)c5C(=O)C4C(=O)OCCOC(C)=O)C(CCC(=O)O)C3C (stereo not shown) [Monoacetylethylene glycol mono-10b-pheophorbate] was tested, and the “N2 pulsed laser spectro-fluorometry, wavelengths calculated using the NADH peak wavelength of 470 nm as the reference” value was 1.30.
In the case of CCC1=C(C)c2cc3[nH]c(cc4nc(c5c6[nH]c(cc1n2)c(C)c6C(O)C5C(=O)OC)C(CCC(=O)O)C4C)c(C)c3C(C)OC(C)=O (stereo not shown) [2-Desethenyl-2-(1-acetyloxyethyl)-9-desoxo-9-hydroxy-pheophorbide], the “N2 pulsed laser spectro-fluorometry, wavelengths calculated using the NADH peak wavelength of 470 nm as the reference” value is reported as 0.95.
“Monoacetylethylene glycol mono-10b-9-desoxo-9-hydroxy-pheophorbate” was tested, and the “N2 pulsed laser spectro-fluorometry, wavelengths calculated using the NADH peak wavelength of 470 nm as the reference” value was 1.20.
For “Ethylene glycol di-10b-2-desethenyl-2-(1-hydroxyethyl)-9-desoxo-9-hydroxy-pheophorbate”, the “N2 pulsed laser spectro-fluorometry, wavelengths calculated using the NADH peak wavelength of 470 nm as the reference” value was 1.80.
C=Cc1c(C)c2cc3nc(c4c5[nH]c(cc6nc(cc1[nH]2)C(C)=C6CC)c(C)c5C(=O)C4C(=O)OC)C(CCC(=O)O)C3C (stereo not shown) [Pheophorbide (1), pheophorbide] was tested, and the “N2 pulsed laser spectro-fluorometry, wavelengths calculated using the NADH peak wavelength of 470 nm as the reference” value was 0.78.
In the case of C=Cc1c(C)c2cc3nc(c4c5[nH]c(cc6nc(cc1[nH]2)C(C)=C6CC)c(C)c5C(O)C4C(=O)NC(Cc1ccccc1)C(=O)O)C(CCC(=O)OC)C3C (stereo not shown) [N-Phenylalanine 10b-9-desoxo-9-hydroxy-methylpheophorbidamide], the “N2 pulsed laser spectro-fluorometry, wavelengths calculated using the NADH peak wavelength of 470 nm as the reference” value is reported as 0.73.
CCC1=C(C)c2cc3[nH]c(cc4nc(c5c6[nH]c(cc1n2)c(C)c6C(=O)C5C(=O)OC)C(CCC(=O)O)C4C)c(C)c3C(C)O (stereo not shown) [2-desethenyl-2-(1-hydroxyethyl)-pheophorbide] was tested, and the “N2 pulsed laser spectro-fluorometry, wavelengths calculated using the NADH peak wavelength of 470 nm as the reference” value was 1.90.
With C=Cc1c(C)c2cc3nc(c4c5[nH]c(cc6nc(cc1[nH]2)C(C)=C6CC)c(C)c5C(O)C4)C(CCC(=O)O)C3C (stereo not shown) [9-Desoxo-9-hydroxy-pyropheophorbide] the “N2 pulsed laser spectro-fluorometry, wavelengths calculated using the NADH peak wavelength of 470 nm as the reference” value was 0.98.
In the case of “Ethylene glycol di-10b-2-desethenyl-2-(1-hydroxyethyl)-pheophorbate”, the “N2 pulsed laser spectro-fluorometry, wavelengths calculated using the NADH peak wavelength of 470 nm as the reference” value is reported as 2.50.
For C=Cc1c(C)c2cc3nc(c4c5[nH]c(cc6nc(cc1[nH]2)C(C)=C6CC)c(C)c5C(=O)C4)C(CCC(=O)O)C3C (stereo not shown) [Pyropheophorbide, reference compound], the “N2 pulsed laser spectro-fluorometry, wavelengths calculated using the NADH peak wavelength of 470 nm as the reference” value was 0.25.
In the case of CCC1=C(C)c2cc3[nH]c(cc4nc(c5c6[nH]c(cc1n2)c(C)c6C(OC(C)=O)C5C(=O)OC)C(CCC(=O)O)C4C)c(C)c3C(C)OC(C)=O (stereo not shown) [2-Desethenyl-2-(1-acetyloxyethyl)-9-desoxo-9-acetyloxypheophorbide], the “N2 pulsed laser spectro-fluorometry, wavelengths calculated using the NADH peak wavelength of 470 nm as the reference” value is reported as 0.48.
9-Desoxo-9-hydroxy-pheophorbide C was tested, and the “N2 pulsed laser spectro-fluorometry, wavelengths calculated using the NADH peak wavelength of 470 nm as the reference” value was 0.32.
For CCC1=C(C)c2cc3[nH]c(cc4nc(c5c6[nH]c(cc1n2)c(C)c6C(O)C5C(=O)OC)C(CCC(=O)O)C4C)c(C)c3C(C)O (stereo not shown) [2-desethenyl-2-(1-hydroxyethyl)-9-desoxo-9-hydroxy-pheophorbide], the “N2 pulsed laser spectro-fluorometry, wavelengths calculated using the NADH peak wavelength of 470 nm as the reference” value was 3.13.
With “Monoacetylethylene glycol mono-10b-9-desoxo-9-acetyloxy-pheophorbate” the “N2 pulsed laser spectro-fluorometry, wavelengths calculated using the NADH peak wavelength of 470 nm as the reference” value was 0.85.

From patent publication EP0142732B1, “Pheophorbide derivatives and pharmaceutical preparations containing them” (TOYO HAKKA KOGYO KABUSHIKI KAISHA, priority 1983, dated 1985)
